Laboratory results taken from PubChem BioAssay (NCI).
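Following 48 hours of exposure in 96-well plates, responses at five concentrations were used to interpolate endpoints linearly. GI50 marks 50% less growth. TGI: concentration producing complete growth inhibition.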

What was measured:
Test in all cases: growth of human tumour cells (NCI), 48 h
MALME-3M melanoma = test system: MALME-3M melanoma
786-0 renal = test system: 786-0 renal
ACHN renal = test system: ACHN renal
SF-539 CNS = test system: SF-539 CNS
UO-31 renal = test system: UO-31 renal
COLO 205 colon = test system: COLO 205 colon
OVCAR-3 ovarian = test system: OVCAR-3 ovarian
DLD-1 colon = test system: DLD-1 colon
DMS 114 small cell lung = test system: DMS 114 small cell lung
NCI-H226 lung = test system: NCI-H226 lung

N#Cc1nc(Nc2ccc(Cl)cc2)sc1N showed a TGI (MALME-3M melanoma) of 66.1 µM, a TGI (786-0 renal) of 33.7 µM and a TGI (ACHN renal) of 23.6 µM. It also gave a TGI (SF-539 CNS) of 9.46 µM, a TGI (UO-31 renal) of 26.8 µM and a TGI (COLO 205 colon) of 47.7 µM. It also gave a TGI (OVCAR-3 ovarian) of over 61.8 µM, a TGI (DLD-1 colon) of over 100 µM and a TGI (DMS 114 small cell lung) of 73.7 µM. The TGI (NCI-H226 lung) was over 71.7 µM.
O=C1C2C3CCC(C2C(=O)N1CO)C1C2C(=O)N(CO)C(=O)C2C31 (configuration not stated) showed a TGI (MALME-3M melanoma) of over 100 µM, a TGI (786-0 renal) of over 61.3 µM and a TGI (ACHN renal) of over 63 µM. For the same compound, the TGI (SF-539 CNS) was over 85.3 µM, the TGI (UO-31 renal) was over 100 µM and the TGI (COLO 205 colon) was over 59.6 µM. For the same compound, the TGI (OVCAR-3 ovarian) was over 100 µM, the TGI (DLD-1 colon) was over 65.6 µM and the TGI (DMS 114 small cell lung) was over 59.5 µM. For the same compound, the TGI (NCI-H226 lung) was over 100 µM.
COC(=O)c1cc(NC(=O)CN(CCN(CC(=O)O)CC(=O)Nc2ccc(O)c(C(=O)OC)c2)CC(=O)O)ccc1O was tested, and the GI50 (MALME-3M melanoma) was over 100 µM, the TGI (MALME-3M melanoma) was over 100 µM and the GI50 (786-0 renal) was 35.2 µM. For the same compound, the TGI (786-0 renal) was over 100 µM, the GI50 (ACHN renal) was 36.7 µM and the TGI (ACHN renal) was over 100 µM. The GI50 (SF-539 CNS) was 29.4 µM, the TGI (SF-539 CNS) was over 100 µM and the GI50 (UO-31 renal) was 42.7 µM. It also gave a TGI (UO-31 renal) of over 100 µM, a GI50 (COLO 205 colon) of 72 µM and a TGI (COLO 205 colon) of over 100 µM. It also gave a GI50 (OVCAR-3 ovarian) of over 100 µM, a TGI (OVCAR-3 ovarian) of over 100 µM and a GI50 (NCI-H226 lung) of over 100 µM. It also gave a TGI (NCI-H226 lung) of over 100 µM.
In the case of CC1=C2[C@@H](c3ccccc3)C3C=CC2(c2ccccc23)N(C(=O)Nc2cccc3ccccc23)C1=O (some centres not stated), the TGI (MALME-3M melanoma) is reported as over 100 µM, the TGI (786-0 renal) is reported as over 100 µM and the TGI (ACHN renal) is reported as over 100 µM. For the same compound, the TGI (SF-539 CNS) was over 100 µM, the TGI (UO-31 renal) was over 100 µM and the TGI (COLO 205 colon) was over 100 µM. For the same compound, the TGI (OVCAR-3 ovarian) was over 100 µM and the TGI (DMS 114 small cell lung) was over 100 µM.
N#CC(C#N)=Cc1ccc(Oc2ccccc2)cc1 showed a TGI (MALME-3M melanoma) of 45.3 µM, a TGI (786-0 renal) of 33 µM and a TGI (ACHN renal) of over 31.6 µM. It also gave a TGI (SF-539 CNS) of 40.4 µM, a TGI (UO-31 renal) of over 71.4 µM and a TGI (COLO 205 colon) of over 100 µM. For the same compound, the TGI (OVCAR-3 ovarian) was over 100 µM, the TGI (DLD-1 colon) was 20.6 µM and the TGI (DMS 114 small cell lung) was 84 µM. The TGI (NCI-H226 lung) was over 72.8 µM.
Nc1ncnc2c1c(C(=O)NO)cn2C1OC(CO)C(O)C1O (configuration not stated) gave a GI50 (MALME-3M melanoma) of 0.388 µM, a TGI (MALME-3M melanoma) of 3.11 µM and a GI50 (786-0 renal) of 0.63 µM. It also gave a TGI (786-0 renal) of 14.2 µM, a GI50 (ACHN renal) of 0.203 µM and a TGI (ACHN renal) of 1.15 µM. For the same compound, the GI50 (SF-539 CNS) was 0.551 µM, the TGI (SF-539 CNS) was 3.01 µM and the GI50 (UO-31 renal) was 0.368 µM. For the same compound, the TGI (UO-31 renal) was 3.75 µM, the GI50 (COLO 205 colon) was 0.279 µM and the TGI (COLO 205 colon) was 1.55 µM. The GI50 (OVCAR-3 ovarian) was 0.278 µM, the TGI (OVCAR-3 ovarian) was 2.42 µM and the GI50 (NCI-H226 lung) was 0.6 µM. It also gave a TGI (NCI-H226 lung) of 5.51 µM.
COc1cc(/C=N/Nc2ncnc3c2cnn3Cc2ccccc2)ccc1O was tested, and the GI50 (MALME-3M melanoma) was 7.14 µM, the TGI (MALME-3M melanoma) was over 25 µM and the GI50 (786-0 renal) was 6.92 µM. The TGI (786-0 renal) was 18.8 µM, the GI50 (ACHN renal) was 4.13 µM and the TGI (ACHN renal) was over 25 µM. For the same compound, the GI50 (SF-539 CNS) was 8.12 µM, the TGI (SF-539 CNS) was 24.4 µM and the GI50 (UO-31 renal) was 1.93 µM. The TGI (UO-31 renal) was 11.9 µM, the GI50 (COLO 205 colon) was 10.6 µM and the TGI (COLO 205 colon) was over 25 µM. It also gave a GI50 (OVCAR-3 ovarian) of 6.8 µM, a TGI (OVCAR-3 ovarian) of over 19.7 µM and a GI50 (NCI-H226 lung) of 10.3 µM. The TGI (NCI-H226 lung) was over 25 µM.
Compound CNC(=O)c1c(NC(=O)c2ccc(C(C)C)cc2)sc2c1CCC(=O)C2 has a GI50 (MALME-3M melanoma) of 0.891 µM, a TGI (MALME-3M melanoma) of 2.94 µM and a GI50 (786-0 renal) of 0.636 µM. The TGI (786-0 renal) was 3.91 µM, the GI50 (ACHN renal) was 0.279 µM and the TGI (ACHN renal) was 1.14 µM. The GI50 (SF-539 CNS) was 0.306 µM, the TGI (SF-539 CNS) was 1.22 µM and the GI50 (UO-31 renal) was 0.26 µM. For the same compound, the TGI (UO-31 renal) was 1.1 µM, the GI50 (COLO 205 colon) was 0.288 µM and the TGI (COLO 205 colon) was 0.914 µM. For the same compound, the GI50 (OVCAR-3 ovarian) was 0.423 µM, the TGI (OVCAR-3 ovarian) was 1.57 µM and the GI50 (NCI-H226 lung) was 1.73 µM. For the same compound, the TGI (NCI-H226 lung) was 5.29 µM.
With COc1ccc(NC(=O)CC(=O)n2nc(-c3ccccc3)c(N=Nc3ccccc3C)c2-c2ccccc2)cc1 the TGI (MALME-3M melanoma) was 81.9 µM, the TGI (786-0 renal) was 35.5 µM and the TGI (ACHN renal) was 63.7 µM. For the same compound, the TGI (SF-539 CNS) was 28.8 µM, the TGI (UO-31 renal) was over 92 µM and the TGI (COLO 205 colon) was 99.8 µM. It also gave a TGI (OVCAR-3 ovarian) of 33.3 µM, a TGI (DLD-1 colon) of 82.5 µM and a TGI (DMS 114 small cell lung) of 49.7 µM. The TGI (NCI-H226 lung) was 63.7 µM.
Work on C=CCCC(O)c1ccc(CCCCCCCCCCC)o1 (configuration not stated) yielded a GI50 (MALME-3M melanoma) of 15.6 µM, a TGI (MALME-3M melanoma) of 33.8 µM and a GI50 (786-0 renal) of 16.3 µM. For the same compound, the TGI (786-0 renal) was 30.5 µM, the GI50 (ACHN renal) was 15.6 µM and the TGI (ACHN renal) was 28.9 µM. The GI50 (SF-539 CNS) was 18.9 µM, the TGI (SF-539 CNS) was 34.3 µM and the GI50 (UO-31 renal) was 20.9 µM. For the same compound, the TGI (UO-31 renal) was 36.1 µM, the GI50 (COLO 205 colon) was 17.9 µM and the TGI (COLO 205 colon) was 35.3 µM. The GI50 (OVCAR-3 ovarian) was 16.1 µM, the TGI (OVCAR-3 ovarian) was 35.9 µM and the GI50 (NCI-H226 lung) was 17.7 µM. For the same compound, the TGI (NCI-H226 lung) was 33.1 µM.
With CCCCCCCCCCCCCC(=O)OC1C(CO)OC(=O)C1O (configuration not stated) the TGI (MALME-3M melanoma) was over 100 µM, the TGI (786-0 renal) was over 100 µM and the TGI (ACHN renal) was over 100 µM. It also gave a TGI (SF-539 CNS) of over 100 µM, a TGI (UO-31 renal) of over 100 µM and a TGI (COLO 205 colon) of over 100 µM. The TGI (OVCAR-3 ovarian) was over 100 µM, the TGI (DLD-1 colon) was over 100 µM and the TGI (DMS 114 small cell lung) was over 100 µM.
Compound CCCC(=O)Nc1ncnc2c1ncn2C1OC2COP(=O)(O)OC2C1OC(=O)CCC (configuration not stated) has a GI50 (MALME-3M melanoma) of over 1000 µM, a TGI (MALME-3M melanoma) of over 1000 µM and a GI50 (786-0 renal) of over 1000 µM. It also gave a TGI (786-0 renal) of over 1000 µM, a GI50 (ACHN renal) of over 1000 µM and a TGI (ACHN renal) of over 1000 µM. For the same compound, the TGI (SF-539 CNS) was over 1000 µM, the TGI (UO-31 renal) was over 1000 µM and the GI50 (COLO 205 colon) was over 1000 µM. For the same compound, the TGI (COLO 205 colon) was over 1000 µM, the GI50 (OVCAR-3 ovarian) was over 1000 µM and the TGI (OVCAR-3 ovarian) was over 1000 µM. For the same compound, the GI50 (NCI-H226 lung) was over 1000 µM and the TGI (NCI-H226 lung) was over 1000 µM.
For C[CH2][Sn]([Cl])([CH2]C)[CH2]C, the GI50 (MALME-3M melanoma) was 0.572 µM, the TGI (MALME-3M melanoma) was 3.77 µM and the GI50 (786-0 renal) was 1.01 µM. It also gave a TGI (786-0 renal) of 3.63 µM, a GI50 (ACHN renal) of 1.46 µM and a TGI (ACHN renal) of 8.27 µM. It also gave a GI50 (SF-539 CNS) of 1.01 µM, a TGI (SF-539 CNS) of 2.91 µM and a GI50 (UO-31 renal) of 1.65 µM. For the same compound, the TGI (UO-31 renal) was 4.05 µM, the GI50 (COLO 205 colon) was 1.48 µM and the TGI (COLO 205 colon) was 3.8 µM. The GI50 (OVCAR-3 ovarian) was 1.34 µM, the TGI (OVCAR-3 ovarian) was 6.61 µM and the GI50 (DLD-1 colon) was 0.973 µM. The TGI (DLD-1 colon) was 15.8 µM, the GI50 (DMS 114 small cell lung) was 0.968 µM and the TGI (DMS 114 small cell lung) was 4.7 µM. It also gave a GI50 (NCI-H226 lung) of 2.48 µM and a TGI (NCI-H226 lung) of 5.36 µM.
Work on Cc1ccc(C(CC(=O)c2ccccc2)C(C(=O)c2ccccc2)C(c2ccc(C)cc2)C2C(=O)NC(=S)NC2=O)cc1 (configuration not stated) yielded a GI50 (MALME-3M melanoma) of 15.1 µM, a TGI (MALME-3M melanoma) of over 50 µM and a GI50 (786-0 renal) of 26.2 µM. The TGI (786-0 renal) was over 50 µM, the GI50 (ACHN renal) was 11.3 µM and the TGI (ACHN renal) was over 50 µM. It also gave a GI50 (SF-539 CNS) of 28.9 µM, a TGI (SF-539 CNS) of over 50 µM and a GI50 (UO-31 renal) of 6.93 µM. The TGI (UO-31 renal) was 29.3 µM, the GI50 (COLO 205 colon) was 8.45 µM and the TGI (COLO 205 colon) was 24.5 µM. The GI50 (OVCAR-3 ovarian) was 19 µM, the TGI (OVCAR-3 ovarian) was over 50 µM and the GI50 (NCI-H226 lung) was 14.9 µM. For the same compound, the TGI (NCI-H226 lung) was over 50 µM.
